PMC4844702, “Selective inhibition of the kinase DYRK1A by targeting its folding process” (Nature Communications, 2016)

What was measured:
Experiment in all cases: Kinase panel (Carna)
Type in all cases: biochemical
PHKG1 = target: T1, PHKG1 (Homo sapiens, UniProt Q16816)
T1 construct: purchased Carna Biosciences
Description: (§1) Detailed information on the assay conditions is available on the website of Carna Biosciences (http://www.carnabio.com).

FGR = target: T2, FGR (Homo sapiens, UniProt P09769)
T2 construct: purchased Carna Biosciences

PIM2 = target: T3, PIM2 (Homo sapiens, UniProt Q9P1W9)
T3 construct: purchased Carna Biosciences
Description: as §1

SGK3 = target: T4, SGK3 (Homo sapiens, UniProt Q96BR1)
T4 construct: purchased Carna Biosciences

PKD3 = target: T5, PKD3 (Homo sapiens, UniProt O94806)
T5 construct: purchased Carna Biosciences

HIPK1 = target: T6, HIPK1 (Homo sapiens, UniProt Q86Z02)
T6 construct: purchased Carna Biosciences
Description: as §1

MSSK1 = target: T7, MSSK1 (Homo sapiens, UniProt Q9UPE1)
T7 construct: purchased Carna Biosciences
Description: as §1

CK1γ2 = target: T8, CK1γ2 (Homo sapiens, UniProt P78368)
T8 construct: purchased Carna Biosciences

ABL = target: T9, ABL (Homo sapiens, UniProt P00519)
T9 construct: purchased Carna Biosciences
Description: as §1

YES = target: T10, YES (Homo sapiens, UniProt P07947)
T10 construct: purchased Carna Biosciences
Description: as §1

CK1γ3 = target: T11, CK1γ3 (Homo sapiens, UniProt Q9Y6M4)
T11 construct: purchased Carna Biosciences

RAF1_Cascade = target: T12, RAF1_Cascade (Homo sapiens, UniProt P04049)
T12 construct: purchased Carna Biosciences

Erk1 = target: T13, Erk1 (Homo sapiens, UniProt P27361)
T13 construct: purchased Carna Biosciences
Description: as §1

PLK3 = target: T14, PLK3 (Homo sapiens, UniProt Q9H4B4); settings: 10 µM FINDY
T14 construct: purchased Carna Biosciences

PKCβ2 = target: T15, PKCβ2 (Homo sapiens, UniProt P05771)
T15 construct: purchased Carna Biosciences
Description: as §1

CK2α1/β = target: T16, CK2α1/β (Homo sapiens, UniProt P68400)
T16 construct: purchased Carna Biosciences

SGK2 = target: T17, SGK2 (Homo sapiens, UniProt Q9HBY8)
T17 construct: purchased Carna Biosciences

IRAK4 = target: T18, IRAK4 (Homo sapiens, UniProt Q9NWZ3)
T18 construct: purchased Carna Biosciences
Description: as §1

MAP2K5_Cascade = target: T19, MAP2K5_Cascade (Homo sapiens, UniProt Q13163)
T19 construct: purchased Carna Biosciences

TYK2 = target: T20, TYK2 (Homo sapiens, UniProt P29597)
T20 construct: purchased Carna Biosciences
Description: as §1

AurA = target: T21, AurA (Homo sapiens, UniProt O14965)
T21 construct: purchased Carna Biosciences
Description: as §1

AMPKα2/β1/γ1 = target: T22, AMPKα2/β1/γ1 (Homo sapiens, UniProt P54646)
T22 construct: purchased Carna Biosciences
Description: as §1

IKKβ = target: T23, IKKβ (Homo sapiens, UniProt O14920)
T23 construct: purchased Carna Biosciences
Description: as §1

MAP2K3_Cascade = target: T24, MAP2K3_Cascade (Homo sapiens, UniProt P46734)
T24 construct: purchased Carna Biosciences

MST3 = target: T25, MST3 (Homo sapiens, UniProt Q9Y6E0)
T25 construct: purchased Carna Biosciences
Description: as §1

FGFR1 = target: T26, FGFR1 (Homo sapiens, UniProt P11362)
T26 construct: purchased Carna Biosciences

MAP3K3_Cascade = target: T27, MAP3K3_Cascade (Homo sapiens, UniProt Q99759)
T27 construct: purchased Carna Biosciences
Description: as §1

ROCK2 = target: T28, ROCK2 (Homo sapiens, UniProt O75116)
T28 construct: purchased Carna Biosciences

ZAP70 = target: T29, ZAP70 (Homo sapiens, UniProt P43403)
T29 construct: purchased Carna Biosciences
Description: as §1

IRR = target: T30, IRR (Homo sapiens, UniProt P14616)
T30 construct: purchased Carna Biosciences
Description: as §1

EPHB3 = target: T31, EPHB3 (Homo sapiens, UniProt P54753)
T31 construct: purchased Carna Biosciences
Description: as §1

TSSK2 = target: T32, TSSK2 (Homo sapiens, UniProt Q96PF2)
T32 construct: purchased Carna Biosciences
Description: as §1

PDHK4 = target: T33, PDHK4 (Homo sapiens, UniProt Q16654)
T33 construct: purchased Carna Biosciences
Description: as §1

HCK = target: T34, HCK (Homo sapiens, UniProt P08631)
T34 construct: purchased Carna Biosciences
Description: as §1

CaMK4 = target: T35, CaMK4 (Homo sapiens, UniProt Q16566)
T35 construct: purchased Carna Biosciences

TSSK3 = target: T36, TSSK3 (Homo sapiens, UniProt Q96PN8)
T36 construct: purchased Carna Biosciences
Description: as §1

PYK2 = target: T37, PYK2 (Homo sapiens, UniProt Q14289)
T37 construct: purchased Carna Biosciences
Description: as §1

SGK = target: T38, SGK (Homo sapiens, UniProt O00141)
T38 construct: purchased Carna Biosciences

RSK2 = target: T39, RSK2 (Homo sapiens, UniProt P51812)
T39 construct: purchased Carna Biosciences

PKCε = target: T40, PKCε (Homo sapiens, UniProt Q02156)
T40 construct: purchased Carna Biosciences
Description: as §1

MAP2K2_Cascade = target: T41, MAP2K2_Cascade (Homo sapiens, UniProt P36507)
T41 construct: purchased Carna Biosciences

RSK3 = target: T42, RSK3 (Homo sapiens, UniProt Q15349)
T42 construct: purchased Carna Biosciences

FYN = target: T43, FYN (Homo sapiens, UniProt P06241)
T43 construct: purchased Carna Biosciences
Description: as §1

PKCβ1 = target: T44, PKCβ1 (Homo sapiens, UniProt P05771)
T44 construct: purchased Carna Biosciences
Description: as §1

T23 sequence (O14920 whole entry): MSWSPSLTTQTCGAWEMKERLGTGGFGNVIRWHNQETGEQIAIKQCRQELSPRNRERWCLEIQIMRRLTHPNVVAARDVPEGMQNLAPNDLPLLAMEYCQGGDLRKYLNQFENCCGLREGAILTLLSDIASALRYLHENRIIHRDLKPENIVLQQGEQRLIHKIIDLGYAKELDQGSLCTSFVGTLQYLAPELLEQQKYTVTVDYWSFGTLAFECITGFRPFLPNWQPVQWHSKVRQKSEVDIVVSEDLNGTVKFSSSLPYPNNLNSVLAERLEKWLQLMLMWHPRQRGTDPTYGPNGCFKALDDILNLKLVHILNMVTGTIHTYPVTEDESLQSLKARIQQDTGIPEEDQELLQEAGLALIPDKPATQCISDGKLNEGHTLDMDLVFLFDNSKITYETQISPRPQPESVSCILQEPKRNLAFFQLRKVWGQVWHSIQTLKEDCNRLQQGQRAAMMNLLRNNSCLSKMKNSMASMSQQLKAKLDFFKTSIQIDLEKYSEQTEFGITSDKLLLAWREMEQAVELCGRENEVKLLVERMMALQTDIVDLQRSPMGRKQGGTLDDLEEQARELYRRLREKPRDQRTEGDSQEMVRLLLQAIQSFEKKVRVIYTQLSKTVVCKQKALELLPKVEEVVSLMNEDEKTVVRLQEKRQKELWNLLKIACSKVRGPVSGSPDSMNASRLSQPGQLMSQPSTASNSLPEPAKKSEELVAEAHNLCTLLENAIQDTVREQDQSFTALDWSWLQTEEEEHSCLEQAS
T31 sequence (P54753 34-998): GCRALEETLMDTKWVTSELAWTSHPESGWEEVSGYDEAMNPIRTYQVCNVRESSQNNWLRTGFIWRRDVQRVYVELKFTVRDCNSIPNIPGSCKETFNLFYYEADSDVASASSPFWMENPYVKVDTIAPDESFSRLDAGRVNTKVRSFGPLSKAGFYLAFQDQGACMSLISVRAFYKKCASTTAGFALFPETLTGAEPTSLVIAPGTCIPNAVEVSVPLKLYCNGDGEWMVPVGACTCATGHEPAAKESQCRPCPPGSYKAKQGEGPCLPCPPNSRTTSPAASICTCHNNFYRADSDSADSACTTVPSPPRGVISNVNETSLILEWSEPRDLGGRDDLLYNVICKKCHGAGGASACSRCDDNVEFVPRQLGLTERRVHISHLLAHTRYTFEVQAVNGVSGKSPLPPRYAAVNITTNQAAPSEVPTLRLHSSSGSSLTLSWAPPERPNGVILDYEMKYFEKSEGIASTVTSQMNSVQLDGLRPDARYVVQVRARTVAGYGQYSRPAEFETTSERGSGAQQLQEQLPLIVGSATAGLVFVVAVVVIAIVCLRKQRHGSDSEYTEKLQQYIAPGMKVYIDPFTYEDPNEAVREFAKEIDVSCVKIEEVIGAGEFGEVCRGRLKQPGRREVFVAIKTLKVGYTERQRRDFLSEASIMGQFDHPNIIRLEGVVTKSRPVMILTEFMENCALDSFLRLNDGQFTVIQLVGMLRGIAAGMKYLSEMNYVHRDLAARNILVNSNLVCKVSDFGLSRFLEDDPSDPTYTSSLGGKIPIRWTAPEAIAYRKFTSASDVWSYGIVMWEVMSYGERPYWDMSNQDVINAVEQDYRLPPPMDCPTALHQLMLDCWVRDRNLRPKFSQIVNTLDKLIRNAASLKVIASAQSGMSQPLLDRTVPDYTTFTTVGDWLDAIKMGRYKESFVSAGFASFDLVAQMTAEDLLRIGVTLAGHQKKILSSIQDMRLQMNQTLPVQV
T14 sequence (Q9H4B4 whole entry): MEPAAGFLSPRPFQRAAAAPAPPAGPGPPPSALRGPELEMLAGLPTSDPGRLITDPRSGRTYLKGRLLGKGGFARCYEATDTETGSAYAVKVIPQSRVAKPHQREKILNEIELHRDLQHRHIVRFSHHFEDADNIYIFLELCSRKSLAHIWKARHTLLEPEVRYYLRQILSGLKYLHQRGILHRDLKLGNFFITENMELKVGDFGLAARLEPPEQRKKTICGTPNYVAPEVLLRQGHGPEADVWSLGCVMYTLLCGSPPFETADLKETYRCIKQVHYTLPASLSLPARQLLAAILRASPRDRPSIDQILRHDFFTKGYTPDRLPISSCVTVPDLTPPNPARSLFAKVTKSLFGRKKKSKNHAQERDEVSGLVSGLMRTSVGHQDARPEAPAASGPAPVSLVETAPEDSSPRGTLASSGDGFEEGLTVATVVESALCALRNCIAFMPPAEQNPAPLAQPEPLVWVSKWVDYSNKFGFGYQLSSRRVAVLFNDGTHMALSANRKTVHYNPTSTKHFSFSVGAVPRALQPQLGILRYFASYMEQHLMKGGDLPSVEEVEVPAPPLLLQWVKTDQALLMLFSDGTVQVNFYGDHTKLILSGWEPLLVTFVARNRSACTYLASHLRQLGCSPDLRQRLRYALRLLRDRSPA
T43 sequence (P06241 whole entry): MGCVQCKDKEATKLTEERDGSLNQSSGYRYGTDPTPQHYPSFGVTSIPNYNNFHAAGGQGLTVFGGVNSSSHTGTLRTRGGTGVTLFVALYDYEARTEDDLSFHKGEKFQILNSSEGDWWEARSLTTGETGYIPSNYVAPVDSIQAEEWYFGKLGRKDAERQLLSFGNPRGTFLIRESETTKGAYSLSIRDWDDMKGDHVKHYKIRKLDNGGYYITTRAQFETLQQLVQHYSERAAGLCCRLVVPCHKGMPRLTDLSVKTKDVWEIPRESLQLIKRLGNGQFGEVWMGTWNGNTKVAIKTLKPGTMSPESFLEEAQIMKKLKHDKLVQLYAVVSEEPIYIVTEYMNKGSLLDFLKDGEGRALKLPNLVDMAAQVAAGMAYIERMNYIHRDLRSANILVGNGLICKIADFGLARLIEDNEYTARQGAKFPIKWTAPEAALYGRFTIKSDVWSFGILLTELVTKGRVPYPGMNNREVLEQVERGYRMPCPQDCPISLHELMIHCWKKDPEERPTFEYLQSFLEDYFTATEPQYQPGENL
T3 sequence (Q9P1W9 whole entry): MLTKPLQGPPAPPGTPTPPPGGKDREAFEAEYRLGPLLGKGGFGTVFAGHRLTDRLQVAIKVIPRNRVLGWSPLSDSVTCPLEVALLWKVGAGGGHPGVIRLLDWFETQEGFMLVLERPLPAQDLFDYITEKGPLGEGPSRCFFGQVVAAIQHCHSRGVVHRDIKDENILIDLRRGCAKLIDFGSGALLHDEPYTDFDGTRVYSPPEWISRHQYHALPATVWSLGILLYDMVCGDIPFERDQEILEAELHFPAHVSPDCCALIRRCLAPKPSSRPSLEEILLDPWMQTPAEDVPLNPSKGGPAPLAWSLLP
T35 sequence (Q16566 whole entry): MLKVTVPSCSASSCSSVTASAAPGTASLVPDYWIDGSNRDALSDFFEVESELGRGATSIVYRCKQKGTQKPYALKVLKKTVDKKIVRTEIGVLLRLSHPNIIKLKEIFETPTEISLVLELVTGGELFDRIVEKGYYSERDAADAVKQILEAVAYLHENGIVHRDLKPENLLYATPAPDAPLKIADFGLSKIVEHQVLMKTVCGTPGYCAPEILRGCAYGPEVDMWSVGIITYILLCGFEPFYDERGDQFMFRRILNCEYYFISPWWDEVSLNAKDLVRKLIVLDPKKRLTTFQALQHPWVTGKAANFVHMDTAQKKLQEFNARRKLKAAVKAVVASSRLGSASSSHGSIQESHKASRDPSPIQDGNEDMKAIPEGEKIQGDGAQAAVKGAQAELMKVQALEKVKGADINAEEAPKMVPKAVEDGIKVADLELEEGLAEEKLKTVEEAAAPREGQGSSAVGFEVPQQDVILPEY
T1 sequence (Q16816 whole entry): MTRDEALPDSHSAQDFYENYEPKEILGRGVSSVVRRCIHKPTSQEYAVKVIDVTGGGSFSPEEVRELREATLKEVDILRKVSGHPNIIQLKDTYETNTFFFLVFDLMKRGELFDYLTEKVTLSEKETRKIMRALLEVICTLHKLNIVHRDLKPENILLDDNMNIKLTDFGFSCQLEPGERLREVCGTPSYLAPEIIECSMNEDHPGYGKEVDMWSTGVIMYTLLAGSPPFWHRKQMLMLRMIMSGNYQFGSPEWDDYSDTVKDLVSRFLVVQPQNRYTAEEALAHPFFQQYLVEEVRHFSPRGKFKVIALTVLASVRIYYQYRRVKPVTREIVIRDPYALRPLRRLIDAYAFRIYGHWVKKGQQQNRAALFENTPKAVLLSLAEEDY
T2 sequence (P09769 whole entry): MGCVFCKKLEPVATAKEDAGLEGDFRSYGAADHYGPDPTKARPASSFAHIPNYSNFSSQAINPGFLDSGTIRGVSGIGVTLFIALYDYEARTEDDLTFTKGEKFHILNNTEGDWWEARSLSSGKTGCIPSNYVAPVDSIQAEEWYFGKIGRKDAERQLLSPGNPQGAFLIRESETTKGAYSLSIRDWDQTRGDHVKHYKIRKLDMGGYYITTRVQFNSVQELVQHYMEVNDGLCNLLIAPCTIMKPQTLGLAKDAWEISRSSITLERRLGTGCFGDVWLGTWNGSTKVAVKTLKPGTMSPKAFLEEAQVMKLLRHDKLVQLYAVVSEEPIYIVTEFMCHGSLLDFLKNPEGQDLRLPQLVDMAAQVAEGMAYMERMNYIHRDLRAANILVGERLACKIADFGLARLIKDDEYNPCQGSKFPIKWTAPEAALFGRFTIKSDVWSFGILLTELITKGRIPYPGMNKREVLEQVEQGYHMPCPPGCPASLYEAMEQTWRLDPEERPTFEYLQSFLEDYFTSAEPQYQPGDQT
T17 sequence (Q9HBY8 whole entry): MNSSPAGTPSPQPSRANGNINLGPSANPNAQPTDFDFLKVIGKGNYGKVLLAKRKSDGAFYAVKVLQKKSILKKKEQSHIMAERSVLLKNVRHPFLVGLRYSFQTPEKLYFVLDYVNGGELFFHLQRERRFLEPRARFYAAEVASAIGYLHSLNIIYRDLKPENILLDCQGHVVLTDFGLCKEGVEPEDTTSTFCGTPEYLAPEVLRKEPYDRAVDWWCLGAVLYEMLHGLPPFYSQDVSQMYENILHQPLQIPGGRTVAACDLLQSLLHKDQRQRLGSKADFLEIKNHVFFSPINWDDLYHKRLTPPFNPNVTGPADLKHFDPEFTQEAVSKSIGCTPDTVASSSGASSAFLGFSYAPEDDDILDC

Compound: COc1ccc(/C=C2\SC(=S)NC2=O)cc1C#C[Si](C)(C)C [FINDY]
- inhibition at 10 µM (PHKG1): 8.9%
- inhibition at 10 µM (FGR): 5.3%
- inhibition at 10 µM (PIM2): 67.4%
- inhibition at 10 µM (SGK3): 21.7%
- inhibition at 10 µM (PKD3): -13.4%
- inhibition at 10 µM (HIPK1): 11.8%
- inhibition at 10 µM (MSSK1): 6.6%
- inhibition at 10 µM (CK1γ2): 27.7%
- inhibition at 10 µM (ABL): 13%
- inhibition at 10 µM (YES): 6.4%
- inhibition at 10 µM (CK1γ3): 15.9%
- inhibition at 10 µM (RAF1_Cascade): 50.9%
- inhibition at 10 µM (Erk1): 33.8%
- inhibition at 10 µM (PLK3): 76.3%
- inhibition at 10 µM (PKCβ2): -2.3%
- inhibition at 10 µM (CK2α1/β): 45.4%
- inhibition at 10 µM (SGK2): 30.9%
- inhibition at 10 µM (IRAK4): -0.8%
- inhibition at 10 µM (MAP2K5_Cascade): -0.1%
- inhibition at 10 µM (TYK2): -5.4%
- inhibition at 10 µM (AurA): 58.7%
- inhibition at 10 µM (AMPKα2/β1/γ1): 1.7%
- inhibition at 10 µM (IKKβ): -3.5%
- inhibition at 10 µM (MAP2K3_Cascade): 26%
- inhibition at 10 µM (MST3): 6.4%
- inhibition at 10 µM (FGFR1): 37%
- inhibition at 10 µM (MAP3K3_Cascade): 3.3%
- inhibition at 10 µM (ROCK2): -2%
- inhibition at 10 µM (ZAP70): 12.9%
- inhibition at 10 µM (IRR): 3%
- inhibition at 10 µM (EPHB3): 22.2%
- inhibition at 10 µM (TSSK2): 39.9%
- inhibition at 10 µM (PDHK4): 14.8%
- inhibition at 10 µM (HCK): 35.3%
- inhibition at 10 µM (CaMK4): 2.4%
- inhibition at 10 µM (TSSK3): 20.3%
- inhibition at 10 µM (PYK2): 3.6%
- inhibition at 10 µM (SGK): 27.8%
- inhibition at 10 µM (RSK2): 39.9%
- inhibition at 10 µM (PKCε): -6.6%
- inhibition at 10 µM (MAP2K2_Cascade): 38.8%
- inhibition at 10 µM (RSK3): 28%
- inhibition at 10 µM (FYN): 58.4%
- inhibition at 10 µM (PKCβ1): 3.5%
